Data taken from patent US8921273B2, “Substituted pyridazines having herbicidal action” (BASF SE, priority 2010, dated 2014).

Key:
Assay in all cases: greenhouse herbicidal activity, post-emergence treatment
Settings in all cases: application rate 0.5 kg/ha, scale from 0 to 100
CHEAL = format: in vivo, Chenopodium album
Excerpt: (§1) The seeds of the test plants were sown separately for each species. For the post-emergence treatment, the test plants were first grown to a height of 3 to 15 cm, depending on the plant habit, and only then treated with the active ingredients which had been suspended or emulsified in water. For this purpose, the test plants were either sown directly and grown in the same containers, or they were first grown separately as seedlings and transplanted into the test containers a few days prior to treatment. Depending on the species, the plants were kept at 10-25° C. or 20-35° C. The test period extended over 2 to 4 weeks. During this time, the plants were tended, and their response to the individual treatments was evaluated. Evaluation was carried out using a scale from 0 to 100. 100 means no emergence of the plants, or complete destruction of at least the aerial moieties, and 0 means no damage, or normal course of growth. A good herbicidal activity is given at values of at least 70 and a very good herbicidal activity is given at values of at least 85. The plants used in the greenhouse experiments belonged to the following species: [table]

ECHCG = format: in vivo, Echinochloa crus-galli
Excerpt: as §1

AMARE = format: in vivo, Amaranthus retroflexus
Excerpt: as §1

GALAP = format: in vivo, Galium aparine
Excerpt: as §1

O=c1c(-c2cc(Cl)cc(N3CCOCC3)c2C(F)(F)F)c(O)c2nccnc2n1CC(F)F [I-1, 7-[5-chloro-3-morpholino-2-(trifluoromethyl)phenyl]-5-(2,2-difluoroethyl)-8-hydroxy-pyrido[2,3-b]pyrazin-6-one]
herbicidal activity against CHEAL (CHEAL): very good herbicidal activity (a very good herbicidal activity is given at values of at least 85)
herbicidal activity against ECHCG (ECHCG): very good herbicidal activity (a very good herbicidal activity is given at values of at least 85)

O=c1c(-c2cccc(C3=NOCC3)c2C(F)(F)F)c(O)c2nccnc2n1CC(F)F [I-2, 5-(2,2-difluoroethyl)-7-[3-(4,5-dihydroisoxazol-3-yl)-2-(trifluoromethyl)phenyl]-8-hydroxy-pyrido[2,3-b]pyrazin-6-one]
herbicidal activity against AMARE (AMARE): very good herbicidal activity (a very good herbicidal activity is given at values of at least 85)
herbicidal activity against GALAP (GALAP): very good herbicidal activity (a very good herbicidal activity is given at values of at least 85)
